Data: patent US7122173B2, “Agent for the treatment of bladder irritative symptoms accompanied by benign prostatic hyperplasia” (Kyowa Hakko Kogyo Co., Ltd., priority 2001, dated 2006)

What was measured:
DRG cells = assay: Current clamp, changes in membrane potential in DRG cells; format: cell-based, rat; details: control (0 mol/L) −47.95 ± 0.22
Experimental: Experiments were performed on adult female Sprague Dawley rats. A […] population of DRG neurons that innervate the urinary bladder were labeled by retrograde axonal transport of the fluorescent dye, Fast Blue (4% w/v) (Polyloy, Gross Umstadt, Germany) injected into the wall of the bladder in halothane-anesthetized animals 7 days before the dissociation. The dye was injected with a 28 gauge needle at three to six sites on the dorsal surface of the organ (5–6 μL per site, total volume of 20–30 μL). Each injection site was washed with saline to minimize contamination of adjacent organs with the dye.
Freshly dissociated neurons from DRG were prepared from halothane-anesthetized animals. L6 and S1 DRG were dissected from animals and then dissociated in a shaking bath for 25 minutes at 35° C. with 5 mL DMEM (Sigma) containing 0.3 mg/mL trypsin (Type 3, Sigma), 1 mg/mL collagenase (Type 1, Sigma), and 0.1 mg/ML deoxyribonuclease (Type 4, Sigma). Trypsin inhibitor (Type 2a, Sigma) was then added thereto to neutralize the activity of trypsin. Individual DRG cell bodies were isolated by trituration and then plated on a poly-L-lysine-coated 35 mm Petri dishes.
Dye-labeled primary afferent neurons that innervate the urinary bladder were identified using an inverted phase-contrast microscope (Nikon, Tokyo, Japan) with fluorescent attachments (UV-1A filter; excitation wavelength, 365 nm). Gigaohm-seal whole-cell recordings were performed within 6–8 hours after cell dissociation at room temperature (20–22° C.) on each labeled neuron in a culture dish that usually contained three to seven labeled cells among a few hundred unlabeled neurons. The internal solution contained (in mmol/L): KCl 140, CaCl2 1, MgCl2 2, EGTA 11, HEPES 10, Mg-ATP 2, and Tris-GTP 0.4 adjusted to pH 7.4 with KOH. Patch electrodes had resistances of 1–4 M Ω when filled with the internal solution. Neurons were superfused at a flow rate of 1.5 mL/minutes with an external solution containing (in mmol/L): NaCl 150, KCl 5, CaCl2 2.5, MgCl2 1, HEPES 10, and D-glucose 10, adjusted to pH 7.4 with NaOH. All recordings were made with an Axopatch-1D patch-clamp amplifier (Axon Instruments, Foster City, Calif.), and data were acquired and analyzed by PCLAMP software (Axon Instruments).
In current-clamp recordings, membrane potential of DRG cell were measured before and after compound applications. The membrane potentials were normalized to control (before addition of the compound).

[1] = test system: rats with partial urethra obstruction; assay: Bladder capacity in rats with partial outlet obstruction (cystometry); format: in vivo, rat; details: oral
Experimental: The test was carried out in accordance with the method of Saito et al. (J. Urol., 150: 1145–1151 (1993)). Male SD rats of 8 to 9 weeks of age (supplied by Japan SLC) were used in the test. Five to seven animals of these rats were put in each metal cage and reared by allowing them to freely take commercially available chow and water, in a rearing room at a room temperature of from 19 to 25° C. and a humidity of from 30 to 70% under illumination for 12 hours (from 7 a.m. to 7 p.m.) per day. Partial urethra obstruction was induced in rats, as a model of urethral obstruction mimicking BPH. Each rat was anesthetized by intraperitoneal administration of 50 mg/kg of pentobarbital sodium (Dainippon Pharmaceutical) and placed in dorsal position. The abdomen was cut in a length of about 1 cm by median incision to expose the bladder, prostate and the urethra. The bladder neck and bladder base were peeled from the prostate, and two surgical sutures (No. 3, Natsume Seisakusho) were passed behind the urethra base. A polyethylene tube (PE-200; Becton Dickinson) was placed along the urethra, and the urethra was mildly double-ligated together with the tube. The ligation was carried out in such a manner that the urethra was not pressed by the polyethylene tube and the sutures were not loosened. The polyethylene tube was pulled out and the urethra was constricted. On the same day of the above surgery, bladder catheter indwelling operation was carried out. The bladder was exposed, and a polyethylene tube (PE-50; Becton Dickinson) was inserted from the bladder top and fixed with a surgical suture. The other end was exposed subcutaneously from the back neck, plugged and then fixed to the skin with the surgical suture. The bladder was returned to the original position and the abdomen was sutured with the surgical suture. Five to seven days after the urethra obstruction and catheter indwelling operations, the rats with partial urethra obstruction and those subjected to sham-operation were put in Ballman cages (KN-326-1, Natsume Seisakusho) under the restricted state, and a three-way cock was connected to the bladder catheter. A pressure transducer (DX-360; Nihon Kohden) was connected to one end of the three-way cock, and the intravesical pressure signal was amplified via a strain pressure amplifier (AP-601G; Nihon Kohden), measured by a polygraph (RPM-6008; Nihon Kohden) and recorded on a thermal array recorder (RTA-1200; Nihon Kohden). A syringe filled with physiological saline (Otsuka Pharmaceutical Industries, Tokushima, Japan) was connected to the other end of the three-way cock and fixed to an infusion pump (KDS 220; Neuroscience). An FD pickup (TB-611T; Nihon Kohden) equipped with a cup was placed on the downside of the Ballman cage and connected to the strain gauge pressure amplifier, and the micturition volume was recorded on the thermal array recorder as the tension change. After the completion of the preparation, physiological saline kept at room temperature was continuously injected into the bladder at a flow rate of 6 mL/h for about 30 minutes, and the animals periodically expressing micturition contraction were used in the test. After they are allowed to stand for 30 to 60 minutes, residual urine was manually expressed by finger pressure. Five minutes thereafter, the injection of physiological saline into the bladder was started again, and the injection was immediately stopped when micturition was observed. The bladder capacity was calculated from the period of time until expression of micturition (injection rate 6 mL/h×injection period). The residual urine volume was calculated by subtracting the micturition volume at the time of bladder contraction (voided volume per micturition) from the bladder capacity. By repeating 30 minutes of bladder injection of physiological saline 2 to 3 times, respective values were measured and used as the test compound or solvent pre-administration values. […]

[2] = before administration (baseline of the Compound 1 group)
[3] = rats with partial urethra obstruction

C[C@](O)(C(=O)Nc1cccc2c1C(=O)c1sccc1CS2(=O)=O)C(F)(F)F [Compound 1, (S)-(+)-N-(5,5-dioxido-10-oxo-4,10-dihydrothieno[3,2-c][1]benzothiepin-9-yl)-3,3,3-trifluoro-2-hydroxy-2-methylpropanamide]
Membrane potential (DRG cells; Compound 1 1.0 × 10^−6 mol/L): −53.67 ± 0.74 mV
Membrane potential (DRG cells; Compound 1 1.0 × 10^−7 mol/L): −57.17 ± 0.53 mV
Membrane potential (DRG cells; Compound 1 1.0 × 10^−8 mol/L): −49.80 ± 0.65 mV
Membrane potential (DRG cells; Compound 1 1.0 × 10^−9 mol/L): −48.10 ± 0.48 mV
Membrane potential (DRG cells; Compound 1 5.0 × 10^−4 mol/L): −42.67 ± 1.46 mV
Membrane potential (DRG cells; Compound 1 5.0 × 10^−5 mol/L): −48.50 ± 1.28 mV
Membrane potential (DRG cells; Compound 1 5.0 × 10^−6 mol/L): −50.50 ± 0.88 mV
Bladder capacity ([1]; 1 h after administration): 0.54 ± 0.08 mL
Residual urine volume ([1]; 1 h after administration): 0.18 ± 0.07 mL
micturition volume ([1]; 1 h after administration): 0.36 ± 0.07 mL
Bladder capacity ([1]; 2 h after administration): 0.46 ± 0.07 mL
Residual urine volume ([1]; 2 h after administration): 0.10 ± 0.05 mL
micturition volume ([1]; 2 h after administration): 0.36 ± 0.07 mL
Bladder capacity ([1]; 3 h after administration): 0.44 ± 0.07 mL
Residual urine volume ([1]; 3 h after administration): 0.18 ± 0.07 mL
micturition volume ([1]; 3 h after administration): 0.27 ± 0.01 mL
Bladder capacity [1, 2]: 0.40 ± 0.04 mL
Residual urine volume [1, 2]: 0.15 ± 0.02 mL
micturition volume [1, 2]: 0.25 ± 0.04 mL
Effect on bladder capacity (in words) [1, 3]: tended to increase bladder capacity
Effect on micturition volume (in words) [1, 3]: significantly increased micturition volume
